Laboratory results from PubChem BioAssay AID1963426 (Molecular Pharmacology Branch, DTP, NCI, 2024).
Values joined by “and” are separate entries in the source; they are usually repeats but may differ in a detail not shown here. Identical values can stand only once.

System: 186277-243-T-J2-PDC complex spheroid growth, % test/control
Assay: Anticancer human tumor 186277-243-T-J2-PDC patient-derived colon adenocarcinoma cell line growth inhibition [Asc]
Conditions: for viability, T/C: stronger effect = lower value; active = viability on the fitted dose curve at most 10% of control; inactive = the rest
Summary of the method: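 Stromal components (HUVEC and hMSC) are co-assembled with the cancer cells into multicellular spheroids. Drugs are then added singly or paired, at concentrations falling by half-log increments from a clinically achievable maximum, capped at 10 microM without known Cmax.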

[1] = curve of first compound, second compound 0.01 µM
[2] = curve of first compound, second compound 0.0316 µM
[3] = curve of first compound, second compound 0.1 µM
[4] = curve of first compound, second compound 0.316 µM
[5] = curve of first compound, second compound 1 µM
[6] = second compound 0.01 µM, first compound 0.0316 µM
[7] = second compound 0.01 µM, first compound 0.1 µM
[8] = second compound 0.01 µM, first compound 0.316 µM
[9] = second compound 0.01 µM, first compound 1 µM
[10] = second compound 0.0316 µM, first compound 0.0316 µM
[11] = second compound 0.0316 µM, first compound 0.1 µM
[12] = second compound 0.0316 µM, first compound 0.316 µM
[13] = second compound 0.0316 µM, first compound 1 µM
[14] = second compound 0.1 µM, first compound 0.0316 µM
[15] = second compound 0.1 µM, first compound 0.1 µM
[16] = second compound 0.1 µM, first compound 0.316 µM
[17] = second compound 0.1 µM, first compound 1 µM
[18] = second compound 0.316 µM, first compound 0.0316 µM
[19] = second compound 0.316 µM, first compound 0.1 µM
[20] = second compound 0.316 µM, first compound 0.316 µM
[21] = second compound 0.316 µM, first compound 1 µM
[22] = second compound 1 µM, first compound 0.0316 µM
[23] = second compound 1 µM, first compound 0.1 µM
[24] = second compound 1 µM, first compound 0.316 µM
[25] = second compound 1 µM, first compound 1 µM
[26] = second compound 0.01 µM, first compound 0.00316 µM
[27] = second compound 0.01 µM, first compound 0.01 µM
[28] = second compound 0.0316 µM, first compound 0.00316 µM
[29] = second compound 0.0316 µM, first compound 0.01 µM
[30] = second compound 0.1 µM, first compound 0.00316 µM
[31] = second compound 0.1 µM, first compound 0.01 µM
[32] = second compound 0.316 µM, first compound 0.00316 µM
[33] = second compound 0.316 µM, first compound 0.01 µM
[34] = second compound 1 µM, first compound 0.00316 µM
[35] = second compound 1 µM, first compound 0.01 µM
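Also: spheroids exposed to agents for 7 days.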
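For viability, T/C in this document: 100% = DMSO vehicle control wells.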

O=C(c1cc(Cc2n[nH]c(=O)c3ccccc23)ccc1F)N1CCN(C(=O)C2CC2)CC1 + CNC(C)C(=O)NC1CN(S(=O)(=O)c2cccc(S(=O)(=O)N3CCC4CCC(C(=O)NC(c5ccccc5)c5ccccc5)N4C(=O)C(NC(=O)C(C)NC)C3)c2)CCC2CCC(C(=O)NC(c3ccccc3)c3ccccc3)N2C1=O
> 10 µM: IC50 [1] | IC50 [2] | IC50 [3] | IC50 [4] | IC50 [5]
inactive: viability, T/C [6] 95.4% | viability, T/C [7] 116% | viability, T/C [8] 111% | viability, T/C [9] 120% | viability, T/C (second compound 0.01 µM, first compound 3.16 µM) 121% | viability, T/C (second compound 0.01 µM, first compound 10 µM) 147% | viability, T/C [10] 114% | viability, T/C [11] 102% | viability, T/C [12] 99.1% | viability, T/C [13] 114% | viability, T/C (second compound 0.0316 µM, first compound 3.16 µM) 123% | viability, T/C (second compound 0.0316 µM, first compound 10 µM) 156% | viability, T/C [14] 111% | viability, T/C [15] 112% | viability, T/C [16] 114% | viability, T/C [17] 123% | viability, T/C (second compound 0.1 µM, first compound 3.16 µM) 129% | viability, T/C (second compound 0.1 µM, first compound 10 µM) 149% | viability, T/C [18] 98.2% | viability, T/C [19] 104% | viability, T/C [20] 104% | viability, T/C [21] 117% | viability, T/C (second compound 0.316 µM, first compound 3.16 µM) 142% | viability, T/C (second compound 0.316 µM, first compound 10 µM) 148% | viability, T/C [22] 99.3% | viability, T/C [23] 111% | viability, T/C [24] 106% | viability, T/C [25] 114% | viability, T/C (second compound 1 µM, first compound 3.16 µM) 125% | viability, T/C (second compound 1 µM, first compound 10 µM) 159%

O=C(c1ccc(F)c(F)c1Nc1ccc(I)cc1F)N1CC(O)([C@@H]2CCCCN2)C1 + CNC(C)C(=O)NC1CN(S(=O)(=O)c2cccc(S(=O)(=O)N3CCC4CCC(C(=O)NC(c5ccccc5)c5ccccc5)N4C(=O)C(NC(=O)C(C)NC)C3)c2)CCC2CCC(C(=O)NC(c3ccccc3)c3ccccc3)N2C1=O
inactive: viability, T/C [26] 90.3% | viability, T/C [27] 89.6% | viability, T/C [6] 106% | viability, T/C [7] 78.4% | viability, T/C [8] 21.6% | viability, T/C [9] 11.9% | viability, T/C [28] 110% | viability, T/C [29] 95.9% | viability, T/C [10] 115% | viability, T/C [11] 82.2% | viability, T/C [12] 17% | viability, T/C [13] 10.4% | viability, T/C [30] 107% | viability, T/C [31] 104% | viability, T/C [14] 98.8% | viability, T/C [15] 61.7% | viability, T/C [16] 15.8% | viability, T/C [32] 112% | viability, T/C [33] 112% | viability, T/C [18] 108% | viability, T/C [19] 59.4% | viability, T/C [20] 12.6% | viability, T/C [34] 106% | viability, T/C [35] 119% | viability, T/C [22] 105% | viability, T/C [23] 41.2%
0.134 µM: IC50 [3]
0.126 µM: IC50 [4]
active: viability, T/C [17] 9.21% | viability, T/C [21] 7.61% | viability, T/C [24] 8.18% | viability, T/C [25] 7.39%
0.178 µM: IC50 [1]
0.0854 µM: IC50 [5]
0.176 µM: IC50 [2]

CNC(C)C(=O)NC1CN(S(=O)(=O)c2cccc(S(=O)(=O)N3CCC4CCC(C(=O)NC(c5ccccc5)c5ccccc5)N4C(=O)C(NC(=O)C(C)NC)C3)c2)CCC2CCC(C(=O)NC(c3ccccc3)c3ccccc3)N2C1=O (stereo not given)
inactive: viability, T/C (compound 0.00316 µM) 93.8% and 103% | viability, T/C (compound 0.1 µM) 104% [middle of 15 runs]
> 1 µM: IC50 (compound alone, run of 10/03/2022) | IC50 (curve of compound)

COc1c(OCCCN2CCOCC2)ccc2c3n(c(=NC(=O)c4cnc(N)nc4)nc12)CCN3 + CNC(C)C(=O)NC1CN(S(=O)(=O)c2cccc(S(=O)(=O)N3CCC4CCC(C(=O)NC(c5ccccc5)c5ccccc5)N4C(=O)C(NC(=O)C(C)NC)C3)c2)CCC2CCC(C(=O)NC(c3ccccc3)c3ccccc3)N2C1=O
0.0723 µM: IC50 [1]
0.0982 µM: IC50 [2]
0.0848 µM: IC50 [5]
0.0821 µM: IC50 [3]
0.0863 µM: IC50 [4]
inactive: viability, T/C [26] 98.5% | viability, T/C [27] 105% | viability, T/C [6] 62.4% | viability, T/C [7] 47.4% | viability, T/C [8] 25.2% | viability, T/C [9] 19.6% | viability, T/C [28] 99.3% | viability, T/C [29] 128% | viability, T/C [10] 77.7% | viability, T/C [11] 54.3% | viability, T/C [12] 24.9% | viability, T/C [13] 19.1% | viability, T/C [30] 114% | viability, T/C [31] 120% | viability, T/C [14] 68.3% | viability, T/C [15] 50.9% | viability, T/C [16] 25.1% | viability, T/C [17] 18.1% | viability, T/C [32] 108% | viability, T/C [33] 113% | viability, T/C [18] 74.9% | viability, T/C [19] 48.5% | viability, T/C [20] 25.6% | viability, T/C [21] 18.5% | viability, T/C [34] 108% | viability, T/C [35] 104% | viability, T/C [22] 75.2% | viability, T/C [23] 48.2% | viability, T/C [24] 21.3% | viability, T/C [25] 17.7%

Cn1ncnc1[C@H]1c2n[nH]c(=O)c3cc(F)cc(c23)N[C@@H]1c1ccc(F)cc1
> 0.1 µM: IC50 (curve of compound)
inactive: viability, T/C (compound 0.000316 µM) 93% and 95.2% and 74.1% | viability, T/C (compound 0.001 µM) 99.3% and 88.2% and 97.6% | viability, T/C (compound 0.00316 µM) 108% and 104% and 99.5% | viability, T/C (compound 0.01 µM) 116% and 118% and 84.3% | viability, T/C (compound 0.0316 µM) 118% and 122% and 108% | viability, T/C (compound 0.1 µM) 111% and 134% and 100%

CCN1CCN(Cc2ccc(Nc3ncc(F)c(-c4cc(F)c5nc(C)n(C(C)C)c5c4)n3)nc2)CC1
inactive: viability, T/C (compound 0.00316 µM) 102% and 90.6% and 91.4% | viability, T/C (compound 0.01 µM) 88% and 106% and 84.1% | viability, T/C (compound 0.0316 µM) 116% and 109% and 93.2% | viability, T/C (compound 0.1 µM) 116% and 108% and 112% | viability, T/C (compound 0.316 µM) 99.9% and 99.1% and 127% | viability, T/C (compound 1 µM) 97.2% and 98.6% and 123%
> 1 µM: IC50 (curve of compound)

C=CC(=O)N1CCN(c2nc(=O)n(-c3c(C)ccnc3C(C)C)c3nc(-c4c(O)cccc4F)c(F)cc23)C(C)C1 (stereo not given)
inactive: viability, T/C (compound 0.0316 µM) 105% and 89.2% and 107% | viability, T/C (compound 0.1 µM) 92.6% and 91.2% and 95.4% | viability, T/C (compound 0.316 µM) 92.2% and 96.7% and 90.9% | viability, T/C (compound 1 µM) 102% and 99.8% and 107% | viability, T/C (compound 3.16 µM) 97.3% and 94.7% and 112% | viability, T/C (compound 10 µM) 114% and 102% and 97.3%
> 10 µM: IC50 (curve of compound)
